Biological target: T1, urease (Canavalia ensiformis, UniProt P07374)
T1 construct: purchased Sigma
Type: biochemical
Experimental: To simulate soiled anti-odor material, urea/urease solution was prepared and added to the anti-odor material.
In the same beaker, weight 50 g of demineralised water.
In a small plastic cup, weight 0.012 g of urease. Then empty the plastic cup in the beaker containing the water and rinse it with the water/urea solution.
Fill a standard volume with anti-odor material (litter+n-BTPT powder) and equalize the surface. Empty the standard volume in a plastic bowl used for analysis.
Empty slowly the urea/urease solution on the anti-odor material while making sure that no solution comes in contact with sides of the plastic bowl.
Put a cover on the plastic bowl (the cover having a hole).
Insert the tube of a Gastec pump (GV-100S) in the hole of the cover.
Note the start time of the test and take a reading of the tube every 30 minutes for the first 7 hours.
Take a reading at 24 and 48 hour.
Dosimetry tests were performed according to the methodology above. The results were taken after 48 h of testing.
Dosimetry tests were then realised to evaluate the performance of the litter samples by measuring the ammonia release (in ppm). More particularly, performances of the odor-retardant material with n-BTPT in a powder form, in melted phase or coating a particulate support could be evaluated.

T1 sequence (P07374 whole entry, looked up): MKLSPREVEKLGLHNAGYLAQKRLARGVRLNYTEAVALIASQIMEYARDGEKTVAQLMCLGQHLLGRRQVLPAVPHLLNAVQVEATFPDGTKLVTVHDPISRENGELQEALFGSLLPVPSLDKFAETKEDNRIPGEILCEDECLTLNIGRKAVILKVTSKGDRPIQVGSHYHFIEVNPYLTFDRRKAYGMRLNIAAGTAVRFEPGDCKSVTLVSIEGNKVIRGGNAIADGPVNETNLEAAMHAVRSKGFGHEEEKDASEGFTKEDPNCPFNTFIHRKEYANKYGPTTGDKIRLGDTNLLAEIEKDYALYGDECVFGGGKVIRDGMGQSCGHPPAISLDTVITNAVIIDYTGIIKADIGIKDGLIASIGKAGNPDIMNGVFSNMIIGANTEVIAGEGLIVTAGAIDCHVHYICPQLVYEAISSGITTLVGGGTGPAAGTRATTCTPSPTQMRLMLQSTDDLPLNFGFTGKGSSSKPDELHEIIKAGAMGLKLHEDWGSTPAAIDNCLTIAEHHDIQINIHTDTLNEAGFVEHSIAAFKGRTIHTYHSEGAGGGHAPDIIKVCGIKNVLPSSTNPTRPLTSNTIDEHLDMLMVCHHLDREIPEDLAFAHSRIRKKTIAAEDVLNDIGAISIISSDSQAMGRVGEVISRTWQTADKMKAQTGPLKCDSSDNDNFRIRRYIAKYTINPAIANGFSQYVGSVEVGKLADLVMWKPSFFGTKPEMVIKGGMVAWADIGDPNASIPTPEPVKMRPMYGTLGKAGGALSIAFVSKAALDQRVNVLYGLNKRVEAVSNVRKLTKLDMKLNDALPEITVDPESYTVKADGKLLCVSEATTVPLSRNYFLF

SMILES: CCCCNP(N)(N)=S [n-BTPT, N-(n-butyl)thiophosphoric triamide]
- Ammonia release (48 h) (final concentration 350 g/MT n-BTPT in litter, bentonite absorptive substrate): 25 ppm
- ammonia release reaches a maximum (FIG. 1) (n-BTPT concentration of 0.03%, grinded powder in litter, 48 h): 62%
